# Measured values published in patent US20200170269A1, “ALLULOSE-CONTAINING COMPOSITION FOR PROMOTING EXCRETION OF VEGETABLE LIPIDS FROM THE BODY” (CJ CHEILJEDANG CORPORATION, priority 2016, published 2020).
# Experiments:
# Format in all cases: in vivo
# [1] = Body weight of C57BL/6J mice fed a high-fat diet containing vegetable lipids (palm oil, olive oil, soybean oil, margarine) with or without 5% allulose for 8 weeks; conditions: with allulose (5%), mean (SE in cell below); for Initial body weight: 0th week
# Excerpt: Twenty C57BL/6J mice (male, 4-week-old) were purchased from The Jackson Laboratory (USA) and used. After the animals were acclimated to the feeding environment with a lab-chow diet (Purina Co., USA) for 4 weeks, they were divided by a randomized block design into two groups: a negative control group without the ingestion of allulose (n=10/one kind of lipid); and a test group with the ingestion of allulose (n=10/one kind of lipid) and they were fed with the diets for 8 weeks. For the negative control group, the high-fat diet was applied to the AIN-76 diet, and the vegetable lipids [palm oil ([…], Malaysia), olive oil (CJ CheilJedang Corp., South Korea), soybean oil (CJ CheilJedang Corp., South Korea), margarine (Ottogi Foods Co., Ltd., 'Corn margarine', raw materials: consisted of 80 wt % of vegetable lipids (palm olein oil, palm stearin oil, coconut oil, corn oil)] were included. For the test group, among the ingredients of the diet for the negative control group, 5 wt % of sucrose was replaced with allulose (crystalline allulose, 98 wt % of allulose based on dry solids, CJ CheilJedang Corporation) (Table 1). All the animal experiments were carried out under the approval of the Ethics Committee for Animal Studies at Kyungpook National University, South Korea (approval no. KNU-2013-18). All groups were allowed to ingest the iso-energetic diet of the same level by pair feeding based on the test group so as to exclude the calorie-reducing effect due to the allulose and the diets were kept refrigerated at 4° C. during the feeding period. The animals were housed in an individual cage under constant temperature (25±2° C.), constant humidity (50±5%), and a 12 h dark-light cycle. Dietary intake was measured at a constant time every day, and the body weight was measured at a constant time every week.
# [2] = Fecal lipid excretion (triglycerides, cholesterol, free fatty acids) in C57BL/6J mice fed a high-fat diet containing vegetable lipids with or without 5% allulose for 8 weeks; conditions: in words
# Excerpt: Twenty C57BL/6J mice (male, 4-week-old) were purchased from The Jackson Laboratory (USA) and used. After the animals were acclimated to the feeding environment with a lab-chow diet (Purina Co., USA) for 4 weeks, they were divided by a randomized block design into two groups: a negative control group without the ingestion of allulose (n=10/one kind of lipid); and a test group with the ingestion of allulose (n=10/one kind of lipid) and they were fed with the diets for 8 weeks. For the negative control group, the high-fat diet was applied to the AIN-76 diet, and the vegetable lipids [palm oil ([…], Malaysia), olive oil (CJ CheilJedang Corp., South Korea), soybean oil (CJ CheilJedang Corp., South Korea), margarine (Ottogi Foods Co., Ltd., 'Corn margarine', raw materials: consisted of 80 wt % of vegetable lipids (palm olein oil, palm stearin oil, coconut oil, corn oil)] were included. For the test group, among the ingredients of the diet for the negative control group, 5 wt % of sucrose was replaced with allulose (crystalline allulose, 98 wt % of allulose based on dry solids, CJ CheilJedang Corporation) (Table 1). All the animal experiments were carried out under the approval of the Ethics Committee for Animal Studies at Kyungpook National University, South Korea (approval no. KNU-2013-18). […] To remove the turbidity occurring from the development with 3 mM cholic acid (sodium salt), 0.5% Triton X-100 as an emulsifier was mixed with an enzyme test solution during the quantification of total cholesterol and neutral lipids. […] For the quantification of both free cholesterol (FC) and ester-type cholesterol (CE) in the feces, CE was converted by cholesterol esterase into FC and fatty acids. […] The resulting product and H2O2 which is the substrate were subjected to the reaction with peroxidase, phenol, and 4-amino-antipyrine to obtain a color developing material and the absorbance was measured at 500 nm. Quantification was carried out by comparing the measured value with the cholesterol standard curve. […]
# [3] = Fecal lipid excretion (triglycerides, cholesterol, free fatty acids) in C57BL/6J mice fed a high-fat diet containing creamer with or without 5% allulose for 8 weeks; conditions: allulose consumed along with vegetable lipids in the creamer, in words
# Excerpt: Sixteen C57BL/6J mice (male, 4-week-old) were purchased from The Jackson Laboratory (USA) and used. After the animals were acclimated to the feeding environment with a lab-chow diet (Purina Co., USA) for 4 weeks, they were divided by a randomized block design into two groups: a negative control group without the ingestion of allulose (PR, n=8); and a test group with the ingestion of allulose (PRA, n=8) and they were fed with the diets for 8 weeks. […] To remove the turbidity occurring from the development with 3 mM cholic acid (sodium salt), 0.5% Triton X-100 as an emulsifier was mixed with an enzyme test solution during the quantification of total cholesterol and neutral lipids. […] For the quantification of both free cholesterol (FC) and ester-type cholesterol (CE) in the feces, CE was converted by cholesterol esterase into FC and fatty acids. […] The resulting product and H2O2 which is the substrate were subjected to the reaction with peroxidase, phenol, and 4-amino-antipyrine to obtain a color developing material and the absorbance was measured at 500 nm. Quantification was carried out by comparing the measured value with the cholesterol standard curve. […]
smiles,measurement,setting,value
"O=C(CO)C(O)C(O)C(O)CO [allulose, Allulose (D-psicose)]",Initial body weight,[1]; HFD + margarine,21.57±
same,Body weight on 8th week,[1]; HFD + margarine,32.30±
same,Initial body weight,[1]; HFD + olive oil,21.28±
same,Body weight on 8th week,[1]; HFD + olive oil,28.87±
same,Initial body weight,[1]; HFD + palm oil,21.62±
same,Body weight on 8th week,[1]; HFD + palm oil,29.57±
same,Initial body weight,[1]; HFD + soybean oil,21.23±
same,Body weight on 8th week,[1]; HFD + soybean oil,28.84±
same,Cholesterol content in the feces / excretion of cholesterol,[2]; HFD + soybean oil with 5% allulose compared to the SO group,increased
same,Fecal excretion of lipids,"[2]; allulose consumed along with each of palm oil, olive oil, soybean oil, and margarine",promoted
same,Effect of excreting lipids compared to ingestion of allulose along with other vegetable lipids,[2]; allulose taken together with soybean oil,excellent
same,Fecal excretion of lipids,[3],promoted
